Measurements taken from patent US20240336566A1, “CRYSTALLINE FORMS OF A COMPOUND FOR THE TARGETED DEGRADATION OF THE ANDROGEN RECEPTOR” (Arvinas Operations, Inc., priority 2023, published 2024).

Experiments:
Type in all cases: physicochemical
[1] = Primary salt screen: XRPD post temperature cycling/evaporation, post drying and post storage at 40° C./75% RH; conditions: post drying and 40° C./75% RH
Description: • 30 mg samples of Compound A were weighed out into 2 mL screw cap sample vials for 96 experiments. To these, 200 μL of the appropriate solvent system was added to dissolve the material or form a slurry. See Table 16 for the solvent systems selected for the primary salt screen.
• 1.05 eq. of solid counterions were weighed into six separate vials each and 1 molar stock solutions were prepared for liquid counterions in 5 mL of THF. See Table 17 for selected counterions and mass/volume needed for 1.05 eq. additions. • 100 μL of the appropriate solvent was added to the solid counterions.
The solution/slurry of counterion was added to the solution/slurry of the free base material.
• The samples were placed in an incubator shaker to temperature cycle between ambient and 40° C. over 4 hour cycles. • After ca. 72 hours of temperature cycling, observations were noted, see Table 19.
• Where slurries were obtained, the solids were isolated via centrifugation. Solids and gels were analyzed by XRPD.
Any samples that were clear solutions after temperature cycling were left to evaporate at ambient conditions. See Table 20 for observations made after evaporation. Solids obtained through evaporation were analyzed by XRPD.
• The samples obtained from temperature cycling were dried under vacuum at 40° C. for ca. 20 hours while the samples obtained from evaporation were dried under vacuum at 40° C. for ca. 4 hours. […]

[2] = Thermodynamic solubility determination in buffers (HPLC)
From the text: No clear solubility advantage of the salts was noted over Compound A free base.

[3] = 7-day stability assessment (appearance, HPLC, XRPD); conditions: for Reported Purity / Total impurities: HPLC; for purity retained after stability storage (HPLC): after 7 days at 40° C./75% RH (open vial), 80° C. (closed vial), ambient light (closed vial)
Description: The material was gently ground to release any agglomerates and loaded onto a multi-well plate with Kapton or Mylar polymer film to support the sample. […] Data were visualized and images generated using the HighScore Plus 4.7 desktop application (PANalytical, 2θ17).
They all remained white or off-white solids. • XRPD analysis determined the patterns were retained.

[4] = Co-crystal screen: XRPD post temperature cycling and post storage at 40° C./75% RH;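 for XRPD results, primary co-crystal screen post temperature cycling: value is the Compound A free base XRPD pattern number and 9 means a potential new one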; conditions: for XRPD results, primary co-crystal screen post storage at 40° C./75% RH / XRPD results, primary co-crystal screen post temperature cycling: Compound A + 1.05 eq. co-former (= label); for XRPD form post storage at 40° C./75% RH: ca. 24 or ca. 30 hours
[5] = Buffer pH 1.2, 25° C., cf concentration of free base, listed as Compound A Phosphate
[6] = Buffer pH 3.0, 25° C., LOQ 0.00025 mg/mL
[7] = Buffer pH 4.0, 25° C., LOQ 0.00025 mg/mL
[8] = input material before storage (baseline of the stability assessment)
[9] = Buffer pH 1.2, 25° C., cf concentration of free base, listed as Compound A Besylate
[10] = Buffer pH 1.2, 25° C., cf concentration of free base, listed as Compound A Tosylate
[11] = buffer, 25 °C, pH 3, aqueous buffer, thermodynamic from solid, Buffer pH 3.0, LOQ 0.00025 mg/mL

With `COc1cc(O[C@H]2C(C)(C)[C@H](NC(=O)c3ccc(N4CCC(CN5CCN(c6ccc(C(=O)N[C@H]7CCC(=O)NC7=O)c(F)c6)CC5)CC4)cc3)C2(C)C)ccc1C#N` [phosphate Pattern 1] the “assessment of salt form in the primary salt screen” value (“assessment of salt form” below) [1] was “stable hydrates”, the “0 Hr Solubility” value [2, 5] was 5.9 µg/mL and the “4 Hr Solubility” value [2, 5] was 29.1 µg/mL. The “24 Hr Solubility” value [2, 5] was 30.6 µg/mL, the “0 Hr Solubility” value [2, 6] was <0.25 µg/mL and the “4 Hr Solubility” value [2, 6] was <0.25 µg/mL. The “24 Hr Solubility” value [2, 6] was <0.25 µg/mL, the “0 Hr Solubility” value [2, 7] was <0.25 µg/mL and the “4 Hr Solubility” value [2, 7] was <0.25 µg/mL. For the same compound, the “24 Hr Solubility” value ([2]; Buffer pH 4.0, 25° C., LOQ 0.00025 mg/mL, listed as Compound A Phosphate) was <0.25 µg/mL and the thermodynamic solubility ([2]; pH 1.2, after 24 hours, 25° C., as concentration of Compound A free base) was 30.6 µg/mL.
In the case of `COc1cc(O[C@H]2C(C)(C)[C@H](NC(=O)c3ccc(N4CCC(CN5CCN(c6ccc(C(=O)N[C@H]7CCC(=O)NC7=O)c(F)c6)CC5)CC4)cc3)C2(C)C)ccc1C#N` [besylate Pattern 1], the “Reported Purity” value ([3]; after 7 days at 40° C./75% RH) is reported as 97.31 Area %, the Total impurities ([3]; after 7 days at 40° C./75% RH) is reported as 2.69 Area % and the “Reported Purity” value ([3]; after 7 days at 80° C.) is reported as 97.56 Area %. The Total impurities ([3]; after 7 days at 80° C.) was 2.44 Area %, the “Reported Purity” value ([3]; after 7 days at ambient) was 97.17 Area % and the Total impurities ([3]; after 7 days at ambient) was 2.83 Area %. For the same compound, the “Reported Purity” value [3, 8] was 97.33 Area %, the Total impurities [3, 8] was 2.67 Area % and the “purity retained after stability storage (HPLC)” value [3] was > 97 % relative area. The “assessment of salt form” value [1] was “stable hydrates”, the “0 Hr Solubility” value [2, 9] was 13.3 µg/mL and the “4 Hr Solubility” value [2, 9] was 7.3 µg/mL. The “24 Hr Solubility” value [2, 9] was 9.3 µg/mL, the “0 Hr Solubility” value [2, 6] was <0.25 µg/mL and the “4 Hr Solubility” value [2, 6] was <0.25 µg/mL. For the same compound, the “24 Hr Solubility” value [2, 6] was <0.25 µg/mL, the “0 Hr Solubility” value [2, 7] was <0.25 µg/mL and the “4 Hr Solubility” value [2, 7] was <0.25 µg/mL. For the same compound, the “24 Hr Solubility” value ([2]; Buffer pH 4.0, 25° C., LOQ 0.00025 mg/mL, listed as Compound A Besylate) was < 0.25 µg/mL.
For `N[C@@H](Cc1c[nH]cn1)C(=O)O` [L-Histidine], the “XRPD results, primary co-crystal screen post storage at 40° C./75% RH” value (“XRPD results … at 40° C./75% RH” for short) ([4]; 1,4-Dioxane) was 4, the “XRPD results, primary co-crystal screen post temperature cycling” value ([4]; 1,4-Dioxane) was 9 and the “XRPD results … at 40° C./75% RH” value ([4]; DCM:Methanol (50:50 % v/v)) was 2. The “XRPD results, primary co-crystal screen post temperature cycling” value ([4]; DCM:Methanol (50:50 % v/v)) was 2, the “XRPD results … at 40° C./75% RH” value ([4]; THF) was 1 and the “XRPD results, primary co-crystal screen post temperature cycling” value ([4]; THF) was 1.
With `COc1cc(O[C@H]2C(C)(C)[C@H](NC(=O)c3ccc(N4CCC(CN5CCN(c6ccc(C(=O)N[C@H]7CCC(=O)NC7=O)c(F)c6)CC5)CC4)cc3)C2(C)C)ccc1C#N` [free base Pattern 9] the “XRPD form post storage at 40° C./75% RH” value [4] was “converts to Pattern 4” and the “XRPD form post storage at 40° C./75% RH” value ([4]; listed as Pattern 9) was “converted to free base Pattern 4”.
With `COc1cc(O[C@H]2C(C)(C)[C@H](NC(=O)c3ccc(N4CCC(CN5CCN(c6ccc(C(=O)N[C@H]7CCC(=O)NC7=O)c(F)c6)CC5)CC4)cc3)C2(C)C)ccc1C#N` [tosylate Pattern 1] the HPLC purity ([3]; 7 days at 40° C./75% RH (open vial)) was 97.30 % relative area, the “Reported Purity” value ([3]; after 7 days at 80° C.) was 96.76 Area % and the Total impurities ([3]; after 7 days at 80° C.) was 3.24 Area %. The “Reported Purity” value ([3]; after 7 days at ambient) was 97.09 Area %, the Total impurities ([3]; after 7 days at ambient) was 2.91 Area % and the “Total impurities (HPLC)” value ([3]; after 7 days at 40° C./75% RH) was 2.70 Rel. Area %. The “purity retained after stability storage (HPLC)” value [3] was > 96 % relative area, the “XRPD pattern after stability storage” value ([3]; after 7 days at each stability condition) was “gained an additional peak” and the “Total impurities (HPLC)” value ([3]; before stability testing) was 2.56 Rel. Area %. The HPLC purity ([3]; before stability testing (condition N/A)) was 97.44 % relative area, the “assessment of salt form” value [1] was “stable hydrates” and the “0 Hr Solubility” value [2, 10] was 12.2 µg/mL. For the same compound, the “4 Hr Solubility” value [2, 10] was 15.4 µg/mL, the “24 Hr Solubility” value [2, 10] was 6.3 µg/mL and the “0 Hr Solubility” value [2, 7] was <0.25 µg/mL. The “4 Hr Solubility” value [2, 7] was <0.25 µg/mL, the “24 Hr Solubility” value ([2]; Buffer pH 4.0, 25° C., LOQ 0.00025 mg/mL, listed as Compound A Tosylate) was <0.25 µg/mL and the solubility at 0 h [2, 11] was < 0.25 µg/mL. For the same compound, the solubility at 4 h [2, 11] was < 0.25 µg/mL and the solubility at 24 h [2, 11] was < 0.25 µg/mL.
